Literature values, collected in the Kinase Knowledgebase extract (Sharma et al. 2016).

Target: CDK2 (human) (UniProt P24941)
Assay: Enzyme Assay

| IC50 [nM] | Structure (SMILES) |
| --- | --- |
| 8.91 | O=C1Nc2ccccc2C1=CNc1ccc(-c2cnco2)c2c1CS(=O)(=O)C2 |
| 25.1 | NS(=O)(=O)c1ccc(NN=C2C(=O)Nc3ccc(C(=O)NCCn4ccnc4)cc32)cc1 |
| 3.31 | CC(C)Oc1cccc2c1C(=NNc1ccc(S(N)(=O)=O)cc1)C(=O)N2 |
| 4.68 | O=C1Nc2ccc3ncsc3c2C1=CNc1ccc(S(=O)(=O)NCO)cc1 |
| 26.3 | CNS(=O)(=O)Cc1ccc(NC=C2C(=O)Nc3ccc4ncsc4c32)cc1 |

Target: EGFR (UniProt P00533)
Sequence (P00533 whole entry, looked up): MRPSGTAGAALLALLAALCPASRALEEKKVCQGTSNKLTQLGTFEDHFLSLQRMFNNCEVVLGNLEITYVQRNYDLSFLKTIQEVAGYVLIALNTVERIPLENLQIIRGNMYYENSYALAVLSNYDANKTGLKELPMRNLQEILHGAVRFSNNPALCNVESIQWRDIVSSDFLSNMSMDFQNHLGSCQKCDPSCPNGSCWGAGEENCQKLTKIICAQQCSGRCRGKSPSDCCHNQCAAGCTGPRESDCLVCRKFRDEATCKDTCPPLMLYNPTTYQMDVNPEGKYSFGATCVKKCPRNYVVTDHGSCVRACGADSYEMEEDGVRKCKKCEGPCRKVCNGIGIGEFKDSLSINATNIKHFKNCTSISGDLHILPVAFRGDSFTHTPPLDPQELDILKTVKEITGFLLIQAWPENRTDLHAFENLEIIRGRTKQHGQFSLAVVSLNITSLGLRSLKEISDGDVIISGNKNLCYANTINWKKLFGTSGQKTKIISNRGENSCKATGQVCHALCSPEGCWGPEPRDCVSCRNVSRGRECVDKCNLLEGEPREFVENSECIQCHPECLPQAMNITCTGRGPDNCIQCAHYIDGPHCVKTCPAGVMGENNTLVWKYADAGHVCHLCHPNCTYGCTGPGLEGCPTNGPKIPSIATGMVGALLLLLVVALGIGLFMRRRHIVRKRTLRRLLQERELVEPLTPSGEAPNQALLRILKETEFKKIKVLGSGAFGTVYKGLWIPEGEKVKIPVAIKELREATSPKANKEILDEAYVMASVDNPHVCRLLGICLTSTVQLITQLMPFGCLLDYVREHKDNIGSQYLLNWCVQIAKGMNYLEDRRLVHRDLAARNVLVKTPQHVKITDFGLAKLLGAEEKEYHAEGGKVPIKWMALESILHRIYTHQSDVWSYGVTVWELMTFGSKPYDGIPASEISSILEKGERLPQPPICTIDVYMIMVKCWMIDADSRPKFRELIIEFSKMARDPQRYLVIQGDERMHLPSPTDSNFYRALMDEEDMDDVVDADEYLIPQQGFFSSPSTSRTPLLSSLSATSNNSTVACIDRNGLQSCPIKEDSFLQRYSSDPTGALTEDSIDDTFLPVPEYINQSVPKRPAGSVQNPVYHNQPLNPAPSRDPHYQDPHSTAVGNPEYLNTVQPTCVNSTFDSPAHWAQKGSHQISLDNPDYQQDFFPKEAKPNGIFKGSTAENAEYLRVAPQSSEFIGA
Assay: EGFr Inhibition

| IC50 [nM] | Structure (SMILES) |
| --- | --- |
| 75000 | Cn1c(=O)c(-c2c(Cl)cccc2Cl)cc2cnc(NCc3ccccc3)nc21 |
| 15000 | CC(C)(C)OC(=O)Nc1ccc(Nc2n[nH]c3ncnc(Nc4cccc(Cl)c4)c23)cc1 |
| 75000 | CCOC(=O)c1ccc(Nc2ncc3cc(-c4c(Cl)cccc4Cl)c(=O)n(C)c3n2)cc1 |
| 75000 | Cn1c(=O)c(-c2c(Cl)cccc2Cl)cc2cnc(NC3CCCCC3)nc21 |
